Legend:
[1] = molecular target: T1, human recombinant full-length Btk enzyme (Homo sapiens, UniProt Q06187); assay: Omnia Continuous Read Kinase Assay, Btk inhibition; assay type: biochemical; parameters: human recombinant full-length Btk enzyme; conditions: 30 minutes pre-incubation at 27° C.; 0.5 nM to 10 μM
Text: The following Example describes testing certain compounds according to the invention for inhibition of BTK activity. The Omnia® Continuous Read Kinase Assay uses an unnatural amino acid chelation enhanced fluorophore (Sox; 8-hydroxy-5-(N,N-dimethylsulfonamido)-2 methylquinoline) incorporated into a kinase-specific peptide substrate to characterize Btk enzyme kinetics and inhibition. Following Btk-mediated phosphorylation, a sensitive, highly quantifiable increase in real-time fluorescence is noted based upon the ability of chelated Mg2+ to form a bridge between Sox and the phosphate group on a tyrosine residue of the peptide substrate. The Omnia® continuous read assay was performed essentially as described by the vendor (Invitrogen; Carlsbad, Calif.). First, a 10× stock of human recombinant full-length Btk enzyme was prepared in Kinase Reaction Buffer. 5 μL of the 10× enzyme was pre-incubated with 0.5 μL of serially diluted compound prepared in 50% DMSO, in a 384-well microtiter plate for 30 minutes at 27° C. 1.13×ATP and the Tyr5-Sox conjugated peptide substrate were prepared in 1× Kinase Reaction Buffer. Kinase reactions were initiated by the addition of 45 μL of the 1.13×ATP-Sox peptide substrate master mix and monitored every 30 to 90 seconds for 60 minutes at λex360/λem485 in a Synergy plate reader. The IC50 values for each compound assayed were determined from test concentrations of 0.5 nM to 10 μM in half-log intervals performed in duplicate.
At the conclusion of each assay, progress curves from each well were examined for linear reaction kinetics and fit statistics (R2, 95% confidence interval, absolute sum of squares) using GraphPad software (GraphPad Prism version 5.01; San Diego, Calif.). Initial velocity (0 minutes to ˜30+ minutes) from each reaction was determined from the slope of a plot of relative fluorescence units versus time (minutes). Using control normalized % inhibition data, plots were constructed against inhibitor concentration to estimate IC50 from log [inhibitor] versus response using a variable slope model in GraphPad. The compound numbers correspond to the compound numbers in Table 1.

BTK = molecular target: T2, BTK (Homo sapiens, UniProt Q06187); assay: Btk target site occupancy, covalent probe ELISA in Ramos cells; assay type: cell-based; conditions: 1 hour at 37° C., 0.09-200 nM, read-out: Ramos cell EC50 (nM), BTK occupancy
T2 construct: endogenous in cells; host or cells: Ramos cells
Procedure: A covalent probe shown below was used in an ELISA assay to determine occupancy of the target BTK by certain compounds according to the invention.
Ramos cells were incubated in serum-free RPMI medium for 1 hour (˜2×10^6 cells/mL in 2 mL). Test compounds were diluted from a 10 mM DMSO stock solution, to achieve a final concentration of 0.09, 0.27, 0.82, 2.47, 7.42, 22.2, 66, and 200 nM. Cells were then incubated for 1 hour at 37° C. Following incubation, cells were spun at 1100 RPM for 5 minutes then washed in 200 μL of chilled PBS. Following the wash, cells were spun at 1100 RPM for 5 minutes. The supernatant was aspirated and then cells were resuspended in lysis buffer containing protease and phosphatase inhibitors. This was followed by centrifugation for 15 minutes at 14000 RPM at 4° C. Supernatant was transferred to a fresh tube. Lysates were stored at −80° C. until assayed.
Samples were thawed and mixed well by vortexing for 5 seconds. 60 μL of each sample was added into the 96-well mixing plate followed by addition of 60 μL of covalent probe solution (2 μM probe in PBS+0.05% Tween-20+1% BSA; 1:2 sample dilution) to each well containing sample. An adhesive cover was then placed on the plate followed by mixing of the plate on a shaker for 1 hour at room temperature. The streptavidin plate was pre-washed 3 times with PBS+0.05% Tween-20. 50 μL of the standards, QCs, and samples were then transferred from the mixing plate to the streptavidin plate. The plate was covered with an adhesive cover and mixed while shaking for 1 hour at room temperature. A 1:1000 dilution of the primary anti-Btk antibody (catalog #611116, Becton Dickinson; Franklin Lakes, N.J.) in PBS+0.05% Tween-20+0.5% BSA was prepared. The streptavidin plate was washed 3 times with PBS+0.05% Tween-20 and 50 μL/well of diluted anti-Btk antibody was then pipetted into the streptavidin plate. The plate was covered and incubated for 1 hour at room temperature. A 1:5000 dilution of secondary antibody (goat anti-mouse-HRP, catalog #62-6520, Zymed-Invitrogen; Carlsbad, Calif.) in PBS+0.05% Tween-20+0.5% BSA was prepared. The streptavidin plate was again washed 3 times with PBS+0.05% Tween-20 and 50 μL/well of diluted secondary antibody was pipetted into the streptavidin plate. The plate was covered and incubated for 1 hour at room temperature. The streptavidin plate was again washed 3 times with PBS+0.05% Tween-20 followed by the addition of 100 μL of TMB solution to each well. The plate was then read on a Synergy^2 plate reader at OD 650 nm until the OD maximum reached 1.0. This was followed by the addition of 100 μL of the Stop Solution. The plate was then read at OD 450 nm. A human recombinant Btk protein standard curve (11.7-3000 pg/μL) was plotted using a 4 parameter curve fit in GenS software (Version 1.05.11; Biotek; Winooski, Vt.;). The sample ODs were read against the standard curve to calculate free protein amounts.
Data were generated as ODs on an ELISA plate reader (Synergy^2, BioTek; Winooski, Vt.). Uninhibited Btk captured by the biotinylated covalent probe was quantitated and normalized to untreated control samples. Results were expressed as % Btk occupancy. EC50 values were generated using a 4 parameter curve fit analysis in GraphPad Prism version 5.0.

[2] = molecular target: T1, human recombinant full-length Btk enzyme; assay: Covalent bonding assay, intact protein MALDI mass spectrometry; assay type: binding; parameters: The full-length recombinant human Btk protein; purchased Invitrogen Lot #619547Q (catalogue number not given); conditions: percentage of total protein covalently modified after one hour incubation, 10-fold excess of compound, room temperature
Procedure: The following example describes testing certain compounds to determine whether they covalently bind to BTK. The full-length recombinant human Btk protein (Lot #619547Q; 0.35 mg/mL) was obtained from Invitrogen (Carlsbad, Calif.). Btk protein was diluted 2:3 in phosphate-buffered saline and stock concentration (10 mM) of compound was diluted 1:115 in 50% DMSO.
For all compounds, 1 μL of diluted compound was added to 5 μL of diluted protein. These mixtures were then incubated for 60 minutes at a 10-fold excess of compound to protein under room temperature (˜24° C.) conditions.
At the end of the incubation, 5 μL aliquots of the samples were diluted with 15 μL of 0.2% TFA prior to micro C4 ZipTipping® directly onto the MALDI target plate using sinapinic acid as the desorption matrix (10 mg/mL in 0.2% TFA:Acetonitrile 50:50). Samples were immediately analyzed on an ABSciex 4800 MALDI TOF-TOF mass spectrometer.
For intact protein mass measurement, the mass spectrometer was set in linear mode using a pulsed extraction setting of 81,500. Bovine serum albumin (BSA; Sigma, St Louis, Mo.) was used as the standard to calibrate the instrument. These values correspond to the percentage of total protein covalently modified by the tested compound after one hour incubation.

[3] = test system: TNF-α, IL-1β, and other inflammatory cytokines; conditions: LPS-stimulated hPBMC and human whole blood; cited from earlier work

T1 sequence (Q06187 whole entry): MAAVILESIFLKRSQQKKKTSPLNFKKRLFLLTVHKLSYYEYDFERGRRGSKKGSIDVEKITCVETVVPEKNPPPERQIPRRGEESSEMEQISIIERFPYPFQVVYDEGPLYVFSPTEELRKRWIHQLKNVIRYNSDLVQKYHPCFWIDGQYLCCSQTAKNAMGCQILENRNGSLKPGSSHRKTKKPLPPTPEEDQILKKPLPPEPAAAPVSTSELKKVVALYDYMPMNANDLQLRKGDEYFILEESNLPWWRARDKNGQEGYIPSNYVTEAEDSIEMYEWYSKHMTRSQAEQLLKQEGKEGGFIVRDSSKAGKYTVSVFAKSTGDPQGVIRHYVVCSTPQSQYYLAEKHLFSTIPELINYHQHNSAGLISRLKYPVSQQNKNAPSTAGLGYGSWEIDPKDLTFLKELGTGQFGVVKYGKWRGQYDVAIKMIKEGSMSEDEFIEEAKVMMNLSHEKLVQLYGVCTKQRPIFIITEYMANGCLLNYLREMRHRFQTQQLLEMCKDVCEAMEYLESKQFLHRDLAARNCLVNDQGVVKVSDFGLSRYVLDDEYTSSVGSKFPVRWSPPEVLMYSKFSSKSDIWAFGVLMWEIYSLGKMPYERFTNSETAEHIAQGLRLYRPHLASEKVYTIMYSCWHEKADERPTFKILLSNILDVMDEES
T2 sequence (Q06187 whole entry): as above

| SMILES | IC50 [1] [nM] | EC50 (BTK) [nM] | MS % modification [2] | inhibition of TNF-α, IL-1β, and other inflammatory cytokines [3] |
| --- | --- | --- | --- | --- |
| C=CC(=O)Nc1cccc(Nc2nc(N(C)c3ccc(OCCO)cc3)ncc2F)c1 [Compound I-25, N-(3-((5-fluoro-2-((4-(2-hydroxyethoxy)phenyl)(methyl)amino)pyrimidin-4-yl)amino)phenyl)acrylamide] | 101 to 500 | – | – | – |
| C=CC(=O)Nc1cc(O)cc(Nc2nc(Nc3ccc(OCCOC)cc3)ncc2F)c1 [Compound I-16, N-(3-((5-fluoro-2-((4-(2-methoxyethoxy)phenyl)amino)pyrimidin-4-yl)amino)-5-hydroxyphenyl)acrylamide] | ≤ 10 | – | – | – |
| C=CC(=O)Nc1cccc(N(C)c2nc(Nc3ccc(OCCO)cc3)ncc2F)c1 [Compound I-24] | ≤ 10 | < 10 | – | – |
| COCCOc1ccc(Nc2ncc(F)c(Nc3cccc(NC(=O)C4CO4)c3)n2)cc1 (centres unmarked) [Compound I-19, N-(3-((5-fluoro-2-((4-(2-methoxyethoxy)phenyl)amino)pyrimidin-4-yl)amino)phenyl)oxirane-2-carboxamide] | ≤ 10 | < 10 | A (>70% modification) | – |
| O=C(Nc1cccc(Nc2nc(Nc3ccc(OCCO)cc3)ncc2F)c1)C1CO1 (centres unmarked) [Compound I-22, N-(3-((5-fluoro-2-((4-(2-hydroxyethoxy)phenyl)amino)pyrimidin-4-yl)amino)phenyl)oxirane-2-carboxamide] | ≤ 10 | < 50 | – | – |
| C=CC(=O)Nc1cc(Nc2nc(Nc3ccc(OCCOC)cc3)ncc2F)ccc1O [Compound I-17, N-(5-((5-fluoro-2-((4-(2-methoxyethoxy)phenyl)amino)pyrimidin-4-yl)amino)-2-hydroxyphenyl)acrylamide] | ≤ 10 | – | – | – |
| C=CC(=O)Nc1cccc(Nc2nc(Nc3ccc(OCCOC)cc3)ncc2F)c1O [Compound I-18, N-(3-((5-fluoro-2-((4-(2-methoxyethoxy)phenyl)amino)pyrimidin-4-yl)amino)-2-hydroxyphenyl)acrylamide] | ≤ 10 | < 50 | – | – |
| C=CC(=O)Nc1ccc(O)c(Nc2nc(Nc3ccc(OCCOC)cc3)ncc2F)c1 [Compound I-15, N-(3-((5-fluoro-2-((4-(2-methoxyethoxy)phenyl)amino)pyrimidin-4-yl)amino)-4-hydroxyphenyl)acrylamide] | 11 to 100 | – | – | – |
| O=C(Nc1cccc(Nc2nc(Nc3ccc(O)cc3)ncc2F)c1)C(O)CO (centres unmarked) [Compound I-6, N-(3-((5-fluoro-2-((4-hydroxyphenyl)amino)pyrimidin-4-yl)amino)phenyl)-2,3-dihydroxypropanamide] | 101 to 500 | – | C (<30% modification) | – |
| COCCOc1ccc(Nc2ncc(F)c(Nc3cccc(NC(=O)CCO)c3)n2)cc1 [Compound I-26, N-(3-((5-fluoro-2-((4-(2-methoxyethoxy)phenyl)amino)pyrimidin-4-yl)amino)phenyl)-3-hydroxypropanamide] | > 501 | – | – | – |
| Cc1nc2cccc(N)c2c(=O)n1C1CCC(=O)NC1=O (centres unmarked) [compound of formula D, 3-(5-amino-2-methyl-4-oxo-4H-quinazolin-3-yl)-piperidine-2,6-dione] | – | – | – | markedly inhibits |
| COCCOc1ccc(Nc2ncc(F)c(Nc3cccc(N4OCCC4=O)c3)n2)cc1 [Compound I-27] | 101 to 500 | – | – | – |
| COCCOc1ccc(Nc2ncc(F)c(Nc3cccc(NC(=O)C(O)CO)c3)n2)cc1 (centres unmarked) [Compound I-4, N-(3-((5-fluoro-2-((4-(2-methoxyethoxy)phenyl)amino)pyrimidin-4-yl)amino)phenyl)-2,3-dihydroxypropanamide] | 101 to 500 | – | C (<30% modification) | – |
| C=CC(=O)N(C)c1cccc(Nc2nc(Nc3ccc(OCCO)cc3)ncc2F)c1 [Compound I-23, N-(3-((5-fluoro-2-((4-(2-hydroxyethoxy)phenyl)amino)pyrimidin-4-yl)amino)phenyl)-N-methylacrylamide] | ≤ 10 | < 100 | – | – |
| C=CC(=O)Nc1cccc(Nc2nc(Nc3ccc(OCCOC)c(O)c3)ncc2F)c1 [Compound I-13, N-(3-((5-fluoro-2-((3-hydroxy-4-(2-methoxyethoxy)phenyl)amino)pyrimidin-4-yl)amino)phenyl)acrylamide] | ≤ 10 | < 50 | – | – |
| O=C(Nc1cccc(Nc2nc(Nc3ccc(OCCO)cc3)ncc2F)c1)C(O)CO (centres unmarked) [Compound I-5, N-(3-((5-fluoro-2-((4-(2-hydroxyethoxy)phenyl)amino)pyrimidin-4-yl)amino)phenyl)-2,3-dihydroxypropanamide] | 101 to 500 | – | C (<30% modification) | – |
| C=CC(=O)Nc1cccc(Nc2nc(Nc3ccc(OCC(=O)O)cc3)ncc2F)c1 [Compound I-2, 2-(4-((4-((3-acrylamidophenyl)amino)-5-fluoropyrimidin-2-yl)amino)phenoxy)acetic acid] | ≤ 10 | > 200 | – | – |
| C=CC(=O)Nc1cccc(Nc2nc(Nc3ccc(OCCOC)cc3O)ncc2F)c1 [Compound I-14, N-(3-((5-fluoro-2-((2-hydroxy-4-(2-methoxyethoxy)phenyl)amino)pyrimidin-4-yl)amino)phenyl)acrylamide] | ≤ 10 | – | – | – |
